Experimental data reported in patent US7445802B2, “Site-specific in situ generation of allicin using a targeted alliinase delivery system for the treatment of cancers, tumors, infectious diseases and other allicin-sensitive diseases” (Yeda Research and Development Co. Ltd, priority 2000, dated 2008).

What was measured:
[1] = background statement; cited from earlier work
CB-2 cells [2] = assay: [3H]-thymidine incorporation (cell proliferation) in CB-2 cells; format: cell-based, Chinese hamster; details: allicin 0-54 μM, 16 h
Experimental: (§1) The following cell lines were used: N87 human gastric tumor cell line expressing the ErbB-2 receptors (described by Park et al, 1990); CB-2 cell line, generated by transfection of Chinese hamster ovary (CHO) cells with mammalian expression vectors that direct expression of ErbB-2 (Tzahar et al, 1996); and 32D cell line known to be devoid of the ErbB-2 receptors (described by Pinkas-Kramarski, 1996).
[Methyl-^3H]thymidine incorporation (Amersham Pharmacia Biotech, UK) into DNA was measured in 96-well plates. Cells (1,000-20,000 cells/well) were grown 6 h after seeding at 37° C. Cells were treated with conjugates for 1 hour and then 3×washed with medium. […] Cells were harvested after 16 hours incubation at 37° C.
Different concentrations of pure allicin were applied to tissue cultured […] CB-2 cancer cells for quantitative determination of the effective concentration. Thus, CB-2 cells were cultured in 96-well plate (2000 cells/well) for 6-16 h at 37° C. Pure allicin was added (10 μl/well) from pre-diluted allicin solutions in PBS to final concentrations of 0-54 μM (0-9 μg/ml). [^3H]-Thymidine diluted with medium was added to the cell culture (0.8 μCi/well). Cells were harvested after incubation for 16 h at 37° C. and the level of incorporated [^3H]-thymidine was measured to determine the extent of cell proliferation. […]

CB-2 cells [3] = assay: Trypan blue viability of CB-2 cells; format: cell-based
Experimental: as §1
(§2) Viability of living cells was done after staining with Trypan Blue (0.025%) for 10 minutes.
(§3) Cell cultures of N87 (20,000 cells/well) were grown in 96-well plates and 32D cells were grown in suspension in 12-well plates (200,000 cells/ml). Cells were treated with: none, mAb ErbB-2 or mAb-ErbB-2-alliinase conjugate (total protein 2 μg/20,000 cells) for 1 hour at 37° C.

N-87 tumors = assay: In vivo assay of antitumor effects (tumor growth) in nude mice injected with N-87 cells; details: alliin alone i.p., control mice
Experimental: N-87 cultured cells (3-5×10^6) were injected subcutaneously into the back of the mice. One to 5 days later, groups of 6 to 8 mice received either none or mAb-alliinase conjugate by intravenous injection (20 μg mAb/mouse). Conjugates were injected with 3-4 days intervals.
All mice were supplemented with Pyridoxine (vitamin B6) in the drinking water (100 mg/L). […] Tumor size was measured every second day.
All the animal groups were injected with N-87 cells 1-5 days before any treatment. • Group 1. […] Mice were treated with mAb-alliinase conjugates and alliin was administered regularly as described below.
MAb-alliinase conjugate was injected I.V. every 3-4 days. Mice were treated ×5 with the conjugate (20 μg/mouse) in. 3-4 day intervals. Total amount of mAb in the conjugate/mouse was 0.1 mg.

N87 cancer cells = assay: Trypan blue viability of N87 cells; format: cell-based; details: alliin only, mAb ±alliin, or conjugate without alliin
Experimental: as §1, §2, §3

| Compound | lifetime after being mixed with blood [1] | [3H]-thymidine incorporation (DNA synthesis) (CB-2 cells [2]) | lethal concentration (CB-2 cells [3]; Trypan blue staining, CB-2 cells) | tumor size (N-87 tumors) | cell damage (Trypan blue) (N87 cancer cells) | cell damage (Trypan blue) (CB-2 cells [3]; CB-2, alliin only, mAb ±alliin, or conjugate without alliin) |
| --- | --- | --- | --- | --- | --- | --- |
| C=CCS[S+]([O-])CC=C (stereo not drawn) [allicin, thio-2-propene-1-sulfinic acid S-allyl ester] | disappears within a few minutes | inhibits DNA synthesis | about 20 μM |  |  |  |
| S-allyl-L-cysteine sulfoxide [alliin] |  |  |  | no effect on the tumor size | not damaged | not damaged |
